From patent publication US20260152480A1, “POLYCYCLIC COMPOUND AND USE THEREOF” (TYK MEDICINES , INC., priority 2022, published 2026)

tested on: Human pleural mesothelioma cells NCI-H226; assay: Proliferation inhibition assay of human pleural mesothelioma cells NCI-H226 (CCK8); format: cell-based; settings: 72 h, 3 days incubation
Excerpt: Experimental Example 1 Cell Anti-Proliferation Test
Proliferation Inhibition Assay of Human Pleural Mesothelioma Cells NCI-H226 by YAP-TEAD Inhibitor Compounds
Experimental materials and equipment: Human pleural mesothelioma cells NCI-H226 were purchased from Nanjing Cobioer Biosciences CO., LTD. RPMI-1640 medium (Bio-Channel), DMSO (dimethyl sulfoxide), CCK8 (WST-8) cell analysis kit (Beyotime), 0.25% EDTA-Tripsin (trypsin solution), 1×PBS (phosphate buffer, PH7.2), 96-well plate (Corning), fetal bovine serum (FBS), 10,000 U/mL penicillin-G/streptomycin, high-speed cryo-centrifuge (EPPENDORF 5810R), enzyme-linked immunoassay (Tecan Spark).
• A) Tumor cells were cultured in RPMI-1640 (containing 10% FBS and 100 U/mL penicillin-G/streptomycin) at 37° C., 5% CO^2 and saturated humidity until 80-90% density. • B) Removed the culture medium from 10 cm Petri dishes; • C) Rinsed the cells once with 10 ml 1×PBS; • D) Added 4 ml 0.25% EDTA-Tripsin into 37° C., 5% CO^2 incubator for trypsin digestion for 5 minutes, transferred to 15 ml centrifuge tube, centrifuged at 200 g for 5 minutes, discarded the supernatant to get cell precipitate; • E) Resuspend with 4 ml DMEM medium, count and adjust to 10,000 cells/ml. • F) Added cell suspension to 96-well plate with 100 μL per well volume and incubate overnight at 37° C., 5% CO^2 incubator.
• A) Preparation of gradient dilution solution of tested compounds: the test compounds were configured into 1 mM reservoir solution. Then 1.5 μl of the reservoir solution was dissolved in 1.5 ml of DMSO-free culture solution, and then a 3-fold serial gradient dilution was performed with 0.1% DMSO culture solution for a total of 9 concentrations, and the concentrations of the compounds after dilution were as follows: • 333.33 nM, 111.11 nM, 37.03 nM, 12.35 nM, 4.15 nM, 1.37 nM, 0.46 nM, 0.15 nM • B) After thorough mixing, 100 μL of culture compound solution was taken separately to replace the culture solution in the cell culture plate, with 4 replicate wells for each concentration; • C) The cells were transferred to the incubator and incubated for 3 days.
• A) Removed the cell culture plate and added 10 μl of CCK-8 (WST-8) solution per well in the biosafety cabinet. • B) Placed the cell culture plate back into the incubator and continued incubation for 3 hours. • C) Determined the absorbance value by selecting 450 nm on a TECAN enzyme-linked immunoassay detector.
The cell viability (% Cell Viability) was calculated using the following formula.
[formula] • A (dosing): absorbance of wells with cells, CCK8 solution and drug solution • A (blank): absorbance of wells with medium and CCK8 solution but no cells • A (0 dosing): absorbance of wells with cells, CCK8 solution and no drug solution • Cell viability: Cell proliferation viability or cytotoxicity viability IC50 values were obtained by curve fitting with GraphPad Prism 8 software.

SMILES | IC50
C=CC(=O)N1CCC(c2ccc(Cl)nc2Nc2ccc(C(F)(F)F)cc2)CC1 [Compound T27] | 100 to 1000 nM
C=CC(=O)N1CCC(c2cc(C)cnc2Nc2ccc(C(F)(F)F)cc2)CC1 [Compound T22] | ≤ 100 nM
C=CC(=O)N1CCC(c2nccnc2Nc2ccc(C(F)(F)F)cc2)CC1 [Compound T16] | ≤ 100 nM
C=CC(=O)N1CCC(c2cc(-c3cc[nH]n3)cnc2Nc2ccc(C(F)(F)F)cc2)CC1 [Compound T92] | 100 to 1000 nM
C=CC(=O)N1CCC(c2cccnc2Oc2ccc(C(F)(F)F)cc2)CC1 [Compound T59] | ≤ 100 nM

Results, then the molecule that gave them:

IC50 | SMILES
≤ 100 nM | C=CC(=O)N1CCC(c2cccnc2Nc2ccc(C(F)(F)F)cc2)CC1 [Compound T1]
100 to 1000 nM | C=CC(=O)N1CCC(c2c(Nc3ccc(C(F)(F)F)cc3)ncc3ccccc23)CC1 [Compound T37]

tested on: YAP-TEAD; assay: Nano luciferase method to detect YAP-TEAD inhibitor activity (293T cells transfected with pGL3B-8×GTiiC-nLuc-CMV-fLuc); format: cell-based; settings: Homo sapiens, HEK-293T; transfected 293T cells, 48 hours incubation; read-out: Nano Luciferas detection (IC50)
Excerpt: Experimental Example 2 Nano Luciferase Method to Detect YAP-TEAD Inhibitor Activity
(1) Experimental materials and equipment: 293T cells were purchased from Nanjing Cobioer Biosciences CO., LTD. DMEM medium (high sugar, phenol red free, Bio-Channel), DMSO (dimethyl sulfoxide), Lipo6000™ transfection reagent (Beyotime), pGL3B-8×GTiiC-nLuc-CMV-fLuc plasmid, 0.25% EDTA Tripsin (trypsin solution), 1×PBS (phosphate buffer, PH7.2), 96-well white cell culture plate (PerkinElmer), Fetal Bovine Serum (FBS), 10,000 U/mL penicillin-G/streptomycin, High-speed cryo-centrifuge (EPPENDORF 5810R), 37° C. CO^2 incubator, Vi-Cell® cell counter, Envision microplate reader (PerkinElmer).
Resuscitated 293T cells were inoculated into 10 cm petri dishes and placed in a 5% CO^2 incubator at a constant temperature of 37° C. To ensure transfection efficiency, cells in the logarithmic phase (cell density of about 50%-70%) should be used.
One day before transfection, cells in logarithmic phase were digested with Trypsin-EDTA, the reaction was terminated by adding medium, and the cell suspension was made by blowing and mixing with a pipette.
The cell concentration was determined using Vi-cell and diluted to a suspension of 5*10^5 cells per milliliter. Once the cell suspension was prepared, it was gently mixed and 10 ml of liquid was added to a 10 cm petri dish. […] The cells were incubated in a 5% CO^2 incubator at 37° C. for 1 day.
Take two clean and sterile centrifuge tubes, added 750 μL of opti-MEM Medium without antibiotics and serum respectively, then added […] of plasmid (pGL3B-8×GTiiC-nLuc-CMV-fLuc) to one of the tubes and gently blown with a pipette for mixing; the other tube was added with Lipo6000 transfection reagent and gently blown with a pipette for mixing. After standing at room temperature for 5 minutes, the culture medium containing DNA was gently added to the culture medium containing Lipo6000 transfection reagent, mixed by gently inverting the centrifuge tube, and stood at room temperature for 5 minutes.
The above mixture was added evenly dropwise to a 10-cm petri dish and replaced with fresh complete medium after 6 h of incubation.
After 1 day of transfection, Trypsin EDTA was used to digest the cells, medium was added to terminate the reaction, and a cell suspension was made by blowing and mixing with a pipette.
Cell concentration was determined using Vi-cell, and diluted to a suspension of 20,000 cells per milliliter.
After the cell suspension was prepared, it was gently mixed and 100 μL was added to each well in a 96-well plate so that the density of cells to be measured was 2000 per well.
The inoculated cell culture plates were incubated in an incubator, and the compounds in concentration gradients were added after about 24 hours.
The 10 mM compound reservoir solution was diluted to 50 μM with culture medium, and 50 μM compound solution was added sequentially to the third column of the deep-well plate, and 216 μL of culture medium containing 0.5% DMSO to the fourth to eleventh columns.
Gradient dilution: 100 μL of solution was pipetted from the third column and added to the fourth column, after mixing; another 100 μL of solution was pipetted from the fourth column and added to the fifth column, and the operation was repeated until the eleventh column.
Using a multichannel pipette, 25 μL of compound solution was pipetted from the deep-well plate and added to the 96-well culture plate, and each compound was repeated four times on the 96-well plate. A concentration gradient with a maximum concentration of 10,000 nM, 1:3.16, was eventually formed on the 96-well plate.
The 96-well plate was incubated in a 5% CO^2 incubator at a constant temperature of 37° C. for 48 hours, then removed and equilibrated at room temperature for 10 minutes.
100 μL of detection reagent was added to each well and placed on a horizontal shaker at low speed for 10 minutes to fully lyse the cells. […]

SMILES | IC50
C=CC(=O)N1CCC(c2ccc(Cl)nc2Nc2ccc(C(F)(F)F)cc2)CC1 [Compound T27] | ≤ 100 nM
C=CC(=O)N1CCC(c2cc(C)cnc2Nc2ccc(C(F)(F)F)cc2)CC1 [Compound T22] | ≤ 100 nM
C=CC(=O)N1CCC(c2nccnc2Nc2ccc(C(F)(F)F)cc2)CC1 [Compound T16] | ≤ 100 nM
C=CC(=O)N1CCC(c2cc(-c3cc[nH]n3)cnc2Nc2ccc(C(F)(F)F)cc2)CC1 [Compound T92] | ≤ 100 nM
C=CC(=O)N1CCC(c2cccnc2Oc2ccc(C(F)(F)F)cc2)CC1 [Compound T59] | ≤ 100 nM

The remaining lines, values ahead:

IC50 | SMILES
≤ 100 nM | C=CC(=O)N1CCC(c2cccnc2Nc2ccc(C(F)(F)F)cc2)CC1 [Compound T1]
100 to 1000 nM | C=CC(=O)N1CCC(c2c(Nc3ccc(C(F)(F)F)cc3)ncc3ccccc23)CC1 [Compound T37]

tested on: not listed separately; assay: Pharmacokinetic study of the drug, oral administration to rats (plasma, cerebrospinal fluid, brain tissue); format: in vivo; settings: SD rat, 10 mg/kg, single
Excerpt: Experimental Example 3 Pharmacokinetic Study of the Drug
Oral Administration Solvent: 5% DMSO+10% Solutol HS15+85% Saline
Oral administration preparation process: weighed the appropriate amount of powder, added the appropriate volume of DMSO, vortex, then added the appropriate volume of Solutol solution, vortex, and added the appropriate amount of saline, vortex ultrasound into a homogeneous and clarified state of the preparation solution.
The animal room was equipped with an air-conditioning system and well ventilated, and the indoor temperature was maintained in the range of 20-26° C., and the humidity was maintained in the range of 40%-70%. The animal room was artificially illuminated with 12 hours of light and 12 hours of dark (except for the working light that needed to be turned on for experimental operation and cleaning), and the experimental animals were free to feed and drink.
Animals were purchased and fed normally for at least 3 days, and rats that were examined by a veterinarian and had qualified physical conditions were enrolled in this experiment; each rat was labeled with a tail mark. Animals in the oral administration group were fasted overnight the day before administration, and resumed feeding and drinking freely 4 hours after administration.
Before administration, checked the state of the administered preparation, ensured the homogeneity of the preparation by vortexing, stirring or oscillating, and calculated the theoretical volume of the administered drug for each SD rat in each group according to the following formula.
Mode of administration: Oral administration to rats, fasted overnight prior to administration.

SMILES | HL—
C=CC(=O)N1CCC(c2ccc(Cl)nc2Nc2ccc(C(F)(F)F)cc2)CC1 [Compound T27] | 3.03 h
C=CC(=O)N1CCC(c2cc(C)cnc2Nc2ccc(C(F)(F)F)cc2)CC1 [Compound T22] | 2.64 h
C=CC(=O)N1CCC(c2nccnc2Nc2ccc(C(F)(F)F)cc2)CC1 [Compound T16] | 2.07 h
C=CC(=O)N1CCC(c2cc(-c3cc[nH]n3)cnc2Nc2ccc(C(F)(F)F)cc2)CC1 [Compound T92] | 1.59 h
C=CC(=O)N1CCC(c2cccnc2Oc2ccc(C(F)(F)F)cc2)CC1 [Compound T59] | 2.66 h

Second part, the molecule after the results:

HL— | SMILES
1.93 h | C=CC(=O)N1CCC(c2cccnc2Nc2ccc(C(F)(F)F)cc2)CC1 [Compound T1]
13.97 h | C=CC(=O)N1CCC(c2c(Nc3ccc(C(F)(F)F)cc3)ncc3ccccc23)CC1 [Compound T37]

same assay, conditions: SD rat, 10 mg/kg, single, brain tissue (post perfusion) and plasma, read-out: B/P value

Kp | SMILES
1.41 | C=CC(=O)N1CCC(c2nccnc2Nc2ccc(C(F)(F)F)cc2)CC1 [Compound T16]
1.22 | C=CC(=O)N1CCC(c2cccnc2Oc2ccc(C(F)(F)F)cc2)CC1 [Compound T59]

same assay, conditions: in vivo, SD rat, 10 mg/kg, single, read-out: Kpuu Value

Kp uu | SMILES
0.518 | C=CC(=O)N1CCC(c2nccnc2Nc2ccc(C(F)(F)F)cc2)CC1 [Compound T16]
0.765 | C=CC(=O)N1CCC(c2cccnc2Oc2ccc(C(F)(F)F)cc2)CC1 [Compound T59]

same assay, conditions: plasma, SD rat, 10 mg/kg, single

SMILES | AUC(0-inf) | AUC(0-t) | Cmax | MRT last | Tmax
C=CC(=O)N1CCC(c2ccc(Cl)nc2Nc2ccc(C(F)(F)F)cc2)CC1 [Compound T27] | 19600 ng·h/mL | 19400 ng·h/mL | 1880 ng/mL | 6.89 h | 3.33 h
C=CC(=O)N1CCC(c2cc(C)cnc2Nc2ccc(C(F)(F)F)cc2)CC1 [Compound T22] | 3500 ng·h/mL | 3290 ng·h/mL | 594 ng/mL | 3.97 h | 2 h
C=CC(=O)N1CCC(c2nccnc2Nc2ccc(C(F)(F)F)cc2)CC1 [Compound T16] | 17400 ng·h/mL | 17300 ng·h/mL | 2840 ng/mL | 4.48 h | 2.67 h
C=CC(=O)N1CCC(c2cc(-c3cc[nH]n3)cnc2Nc2ccc(C(F)(F)F)cc2)CC1 [Compound T92] | 4830 ng·h/mL | 4770 ng·h/mL | 901 ng/mL | 3.8 h | 2.67 h
C=CC(=O)N1CCC(c2cccnc2Oc2ccc(C(F)(F)F)cc2)CC1 [Compound T59] | 3920 ng·h/mL | 3910 ng·h/mL | 679 ng/mL | 4.6 h | 1.5 h

Now from value to molecule:

AUC(0-inf) | AUC(0-t) | Cmax | MRT last | Tmax | SMILES
5260 ng·h/mL | 5250 ng·h/mL | 919 ng/mL | 4.28 h | 1.33 h | C=CC(=O)N1CCC(c2cccnc2Nc2ccc(C(F)(F)F)cc2)CC1 [Compound T1]
18000 ng·h/mL | 12300 ng·h/mL | 804 ng/mL | 9.85 h | 4.67 h | C=CC(=O)N1CCC(c2c(Nc3ccc(C(F)(F)F)cc3)ncc3ccccc23)CC1 [Compound T37]
